Patent US9586956B2, “Isoquinoline and naphthyridine derivatives” (Genentech, Inc., priority 2012, dated 2017)

Columns and labels:
[1] = molecular target: T1, purified human MAP4K4 kinase domain (Homo sapiens, UniProt O95819); test: MAP4K4 Inhibition Assay Protocol No. 1 (Caliper LabChip, moesin-derived peptide phosphorylation); assay type: biochemical; details: Assay 1; 1 nM enzyme, 10 uM ATP, 45 min
T1 construct: purified human MAP4K4 kinase domain
Procedure, shortened: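 1 nM enzyme with 1 uM 5-carboxyfluorescein-labelled moesin peptide and 10 uM ATP in 50 mM Hepes pH 7.2, 10 mM MgCl2, 2% DMSO, 45 min at room temperature, then EDTA stop. Phosphorylated fraction of peptide measured by microfluidic mobility shift; IC50 from four-parameter fit.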

[2] = molecular target: T1, purified human MAP4K4 kinase domain; test: MAP4K4 Inhibition Assay Protocol No. 2 (Z'-LYTE FRET); assay type: biochemical; details: Assay 2; 1 nM enzyme, 10 uM ATP, 60 min
Text: The kinase activity of purified human MAP4K4 kinase domain was monitored using Z'-LYTE™ technology from Invitrogen to determine inhibition constants (IC50) of small molecule inhibitors. The Z'-LYTE™ biochemical assay employs a fluorescence-based, coupled-enzyme format and is based on the differential sensitivity of phosphorylated and non-phosphorylated peptides to proteolytic cleavage. In the primary reaction, the kinase transfers the gamma-phosphate of ATP to a single tyrosine, serine or threonine residue in a synthetic FRET-peptide. In the secondary reaction, a site-specific protease recognizes and cleaves non-phosphorylated FRET-peptides. Phosphorylation of FRET-peptides suppresses cleavage by the Development Reagent. Cleavage disrupts FRET between the donor (i.e., coumarin) and acceptor (i.e., fluorescein) fluorophores on the FRET-peptide, whereas uncleaved, phosphorylated FRET-peptides maintain FRET. To determine inhibition constants (IC50), compounds were serially diluted in DMSO and added to 10 uL kinase reactions containing 1 nM purified MAP4K4 enzyme, 2 uM ser/thr7 Z'-LYTE™ substrate, 10 uMATP, 50 mM Hepes (pH 7.5), 10 mM MgCl2, 1 mM EGTA, 0.01% Brij-35, and 2% DMSO. Reactions were incubated at room temperature in Corning Black 384 well plates (Corning#3573) for 60 minutes and stopped by the addition of 5 uL of Z'-LYTE™ development reagent A and incubated at room temp for 60 minutes. The plate is then analyzed on Perkin Elmer Envision by FRET mode. The high ratio of coumarin/fluorescein represents 0% phosphorylation rate while low ratio of coumarin/fluorescein represents 100% phosphorylation rate. The following equations are used to determine extent of peptide phosphorylation or inhibition: […]

T1 sequence (O95819 25-289 limits assumed): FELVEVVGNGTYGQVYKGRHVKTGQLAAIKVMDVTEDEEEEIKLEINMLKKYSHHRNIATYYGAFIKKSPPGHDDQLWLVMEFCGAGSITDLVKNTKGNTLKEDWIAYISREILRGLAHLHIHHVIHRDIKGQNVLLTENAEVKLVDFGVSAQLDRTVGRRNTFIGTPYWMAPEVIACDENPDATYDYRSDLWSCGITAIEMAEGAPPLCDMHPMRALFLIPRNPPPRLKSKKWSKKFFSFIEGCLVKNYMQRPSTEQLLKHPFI

IC50 [1] [µM]	IC50 [2] [µM]	Structure (SMILES)
0.0414	0.0294	Nc1ncc(CNC(=O)C2CC2)c2ccc(-c3cccc(F)c3)cc12 [Example 6, N-[[1-amino-7-(3-fluorophenyl)-4-isoquinolyl]methyl]cyclopropanecarboxamide]
0.869	0.776	CN1CC(NC(=O)c2cnc(N)c3cc(-c4cccc(F)c4)ccc23)C1 [Example 7, 1-amino-7-(3-fluorophenyl)-N-(1-methylazetidin-3-yl)isoquinoline-4-carboxamide]
0.00419	0.0044	Nc1ncc(C(=O)N[C@H]2C[C@H](O)C2)c2ccc(-c3cccc(F)c3)nc12 [Example 14b, 8-amino-2-(3-fluorophenyl)-N-(trans-3-hydroxycyclobutyl)-1,7-naphthyridine-5-carboxamide]
	0.0044	COCC(=O)N1CC(NC(=O)c2cnc(N)c3nc(-c4cccc(F)c4)ccc23)C1 [Example 39, 8-amino-2-(3-fluorophenyl)-N-(1-(2-methoxyacetyl)azetidin-3-yl)-1,7-naphthyridine-5-carboxamide]
	0.00563	CC(C)CNC(=O)c1cnc(N)c2nc(-c3cccc(F)c3)ccc12 [Example 40, 8-amino-2-(3-fluorophenyl)-N-isobutyl-1,7-naphthyridine-5-carboxamide]
	1.2	CN(C(=O)c1cnc(N)c2nc(-c3cccc(F)c3)ccc12)C1CN(C(=O)C2CC2)C1 [Example 41, 8-amino-N-(1-(cyclopropanecarbonyl)azetidin-3-yl)-2-(3-fluorophenyl)-N-methyl-1,7-naphthyridine-5-carboxamide]
	0.00832	Nc1ncc(-c2ncn[nH]2)c2ccc(-c3cccc(F)c3)nc12 [Example 42, 2-(3-fluorophenyl)-5-(1H-1,2,4-triazol-5-yl)-1,7-naphthyridin-8-amine]
	0.00248	Nc1ncc(-c2cn(CCN3CCOCC3)cn2)c2ccc(-c3cccc(F)c3)nc12 [Example 43, 2-(3-fluorophenyl)-5-(1-(2-morpholinoethyl)-1H-imidazol-4-yl)-1,7-naphthyridin-8-amine]
	0.00263	Nc1ncc(C(=O)NC2CN(C(=O)C3CC3)C2)c2ccc(-c3ccnc(F)c3)nc12 [Example 44, 8-amino-N-(1-(cyclopropanecarbonyl)azetidin-3-yl)-2-(2-fluoropyridin-4-yl)-1,7-naphthyridine-5-Carboxamide]
0.000464	0.000648	CCOC(=O)c1cnc(N)c2nc(-c3cccc(F)c3)ccc12 [Example 118, ethyl 8-amino-2-(3-fluorophenyl)-1,7-naphthyridine-5-carboxylate]
	0.155	Nc1ncc(CNS(=O)(=O)C2CC2)c2ccc(-c3cccc(F)c3)cc12 [Example 134, N-[[1-amino-7-(3-fluoro-phenyl)-4-isoquinolyl]methyl] cyclopropanesulfonamide]
	0.162	CNC(=O)N1CCC(NC(=O)c2cnc(N)c3cc(-c4cccc(F)c4)ccc23)C1 (stereo not drawn) [Example 135, 1-amino-7-(3-fluorophenyl)-N-[1-(methylcarbamoyl)pyrrolidin-3-yl] isoquinoline-4-carboxamide]
	0.919	Nc1ncc(CNC(=O)c2ccccc2)c2ccc(-c3cccc(F)c3)cc12 [Example 136, N-[[1-amino-7-(3-fluoro-phenyl)-4-isoquinolyl]methyl]benzamide]
	0.0106	Nc1ncc(-c2cc(CO)ccn2)c2ccc(-c3cccc(F)c3)cc12 [Example 137, [2-[1-amino-7-(3-fluoro-phenyl)-4-isoquinolyl]-4-pyridyl]methanol]
	0.0145	Cn1ccc(-c2cnc(N)c3cc(-c4cccc(F)c4)ccc23)n1 [Example 138, 7-(3-fluorophenyl)-4-(1-methylpyrazol-3-yl) isoquinolin-1-amine]
	0.00216	CCOC(=O)c1cnc(N)c2nc(-c3cccc(OC(F)(F)F)c3)ccc12 [Example 139, ethyl 8-amino-2-[3-(trifluoro-methoxy)phenyl]-1,7-naphthyridine-5-carboxylate]
	0.00769	CCOC(=O)c1cnc(N)c2nc(-c3cccc(OC(F)F)c3)ccc12 [Example 140, ethyl 8-amino-2-[3-(difluoro-methoxy)phenyl]-1,7-naphthyridine-5-carboxylate]
	0.00339	CCOC(=O)c1cnc(N)c2nc(-c3ccnc(C)c3)ccc12 [Example 141, ethyl 8-amino-2-(2-methyl-4-pyridyl)-1,7-naphthyridine-5-carboxylate]
	0.48	CCOC(=O)c1cnc(N)c2nc(-c3cccc(S(=O)(=O)N(C)C)c3)ccc12 [Example 142, ethyl 8-amino-2-[3-(dimethyl-sulfamoyl)phenyl]-1,7-naphthyridine-5-carboxylate]
	0.0636	CCOC(=O)c1cnc(N)c2nc(-c3cccc(S(C)(=O)=O)c3)ccc12 [Example 143, ethyl 8-amino-2-(3-methyl-sulfonylphenyl)-1,7-naphthyridine-5-carboxylate]
	0.0031	CCOC(=O)c1cnc(N)c2nc(-c3cccc(C(=O)N(C)C)c3)ccc12 [Example 144, ethyl 8-amino-2-[3-(dimethyl-carbamoyl)phenyl]-1,7-naphthyridine-5-carboxylate]
	0.00184	CCOC(=O)c1cnc(N)c2nc(-c3cc(F)cc(F)c3)ccc12 [Example 145, ethyl 8-amino-2-(3,5-difluoro-phenyl)-1,7-naphthyridine-5-carboxylate]
	0.0326	CCOC(=O)c1cnc(N)c2nc(-c3cccc(OC(C)C)c3)ccc12 [Example 146, ethyl 8-amino-2-(3-isopropoxy-phenyl)-1,7-naphthyridine-5-carboxylate]
	0.00145	CCOC(=O)c1cnc(N)c2nc(-c3cccc(C#N)c3)ccc12 [Example 147, ethyl 8-amino-2-(3-cyanophenyl)-1,7-naphthyridine-5-carboxylate]
	0.00853	CCOC(=O)c1cnc(N)c2nc(-c3cccc(OC)c3)ccc12 [Example 148, ethyl 8-amino-2-(3-methoxy-phenyl)-1,7-naphthyridine-5-carboxylate]
	0.0278	CCOC(=O)c1cnc(N)c2nc(-c3ccc(Cl)cc3)ccc12 [Example 149, ethyl 8-amino-2-(4-chlorophenyl)-1,7-naphthyridine-5-carboxylate]
	0.0212	CCOC(=O)c1cnc(N)c2nc(-c3ccc(OC)cc3)ccc12 [Example 150, ethyl 8-amino-2-(4-methoxy-phenyl)-1,7-naphthyridine-5-carboxylate]
	0.00652	CCOC(=O)c1cnc(N)c2nc(-c3ccc(F)cc3C)ccc12 [Example 153, ethyl 8-amino-2-(4-fluoro-2-methyl-phenyl)-1,7-naphthyridine-5-carboxylate]
	0.382	CCOC(=O)c1cnc(N)c2nc(-c3ccc(Cl)cc3Cl)ccc12 [Example 154, ethyl 8-amino-2-(2,4-dichloro-phenyl)-1,7-naphthyridine-5-carboxylate]
	0.134	CCOC(=O)c1cnc(N)c2nc(-c3ccc(OC)cc3Cl)ccc12 [Example 155, ethyl 8-amino-2-(2-chloro-4-methoxy-phenyl)-1,7-naphthyridine-5-carboxylate]

Structure (SMILES)	IC50 [1] [µM]	IC50 [2] [µM]
CNC(=O)N1CC(NC(=O)c2cnc(N)c3cc(-c4cccc(F)c4)ccc23)C1 [Example 8, 1-amino-7-(3-fluorophenyl)-N-[1-(methylcarbamoyl)azetidin-3-yl]isoquinoline-4-carboxamide]	0.0112	0.015
